Test results: patent US20160355483A1, “COMPOUND BINDING TO PPARG BUT NOT ACTING AS PROMOTER AND PHARMACEUTICAL COMPOSITION FOR TREATING PPARG-RELATED DISEASES CONTAINING SAME AS ACTIVE INGREDIENT” (Hyundai Pharm Co., Ltd., priority 2014, published 2016)

Biological target: T1, PPARG (peroxisome proliferator activated receptor-gamma), GST-PPARG-LBD (Homo sapiens, UniProt P37231)
T1 construct: 15 μL of 5 nM GST-PPARG-LBD and 5 nM Tb-GST-antibody were added; purchased Invitrogen PV4894
T1 sequence (P37231 238-503 limits assumed): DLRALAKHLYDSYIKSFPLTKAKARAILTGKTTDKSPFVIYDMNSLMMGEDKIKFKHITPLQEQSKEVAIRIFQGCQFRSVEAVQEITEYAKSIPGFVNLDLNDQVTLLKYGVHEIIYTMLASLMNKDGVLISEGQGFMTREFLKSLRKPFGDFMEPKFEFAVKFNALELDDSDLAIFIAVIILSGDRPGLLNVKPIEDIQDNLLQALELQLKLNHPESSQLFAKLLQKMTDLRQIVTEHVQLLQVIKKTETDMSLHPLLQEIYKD
Assay: LanthaScreen TR-FRET PPARG Competitive Binding Assay
Set-up: key: “+” indicates the degree of the binding activity, and as the number of “+” increases, the binding activity is stronger; ++: “+” indicates the degree of the binding activity, and as the number of “+” increases, the binding activity is stronger; +++: “+” indicates the degree of the binding activity, and as the number of “+” increases, the binding activity is stronger; ++++: “+” indicates the degree of the binding activity, and as the number of “+” increases, the binding activity is stronger
Settings: degree of binding activity
Method in brief: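 Ratio of 518 nm to 488 nm time-resolved emission after a 1 h room-temperature incubation, in competition format with GST-PPARG ligand-binding domain. Values are expressed as 100% minus compound-to-vehicle ratio and related to rosiglitazone binding.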

SMILES | Binding assay (1 μLM)
C[C@H](NC(=O)c1ccc2c(c1)OCCN2Cc1ccccc1-c1ccc(C(N)=O)cc1)c1ccc(C#N)cc1 [Example 149, (S)-4-((4′-carbamoyl-[1,1′-biphenyl]-2-yl)methyl)-N-(1-(4-cyanophenyl)ethyl)-3,4-dihydro-2H-benzo[b][1,4]oxazine-7-carboxamide] | +
C[C@H](NC(=O)c1ccc2c(c1)OCCN2Cc1ccccc1-c1ccc(C(N)=O)cc1)c1ccc([N+](=O)[O-])cc1 [Example 150, (S)-4-((4′-carbamoyl-[1,1′-biphenyl]-2-yl)methyl)-N-(1-(4-nitrophenyl)ethyl)-3,4-dihydro-2H-benzo[b][1,4]oxazine-7-carboxamide] | ++
C[C@H](NC(=O)c1ccc2c(c1)OCCN2Cc1ccccc1-c1ccc(C(N)=O)cc1)c1ccc2ccccc2c1 [Example 151, (S)-4-((4′-carbamoyl-[1,1′-biphenyl]-2-yl)methyl)-N-(1-(naphthalene-2-yl)ethyl)-3,4-dihydro-2H-benzo[b][1,4]oxazine-7-carboxamide] | +++
C[C@H](NC(=O)c1ccc2c(c1)CCCN2Cc1ccccc1-c1ccc(C(=O)O)cc1)c1ccccc1 [Example 152, (S)-2′-((6-((1-phenylethyl)carbamoyl)-3,4-dihydroquinoline-1 (2H)-yl)methyl)-[1,1′-biphenyl]-4-carboxylic acid] | ++
C[C@H](NC(=O)c1ccc2c(c1)CCCN2Cc1ccccc1-c1ccc(C(N)=O)cc1)c1ccccc1 [Example 153, (S)-1-((4′-carbamoyl-[1,1′-biphenyl]-2-yl)methyl)-N-(1-phenylethyl)-1,2,3,4-tetrahydroquinolin-6-carboxamide] | ++
Cc1ccc([C@H](C)NC(=O)c2ccc3c(c2)CCCN3Cc2ccccc2-c2ccc(C(=O)O)cc2)cc1F [Example 154, (S)-2′-((6-((1-(3-fluoro-4-methylphenyl)ethyl)carbamoyl)-3,4-dihydroquinoline-1(2H)-yl)methyl)-[1,1′-biphenyl]-4-carboxylic acid] | +
Cc1ccc([C@H](C)NC(=O)c2ccc3c(c2)CCCN3Cc2ccccc2-c2ccc(C(N)=O)cc2)cc1F [Example 158, (S)-1-((4′-carbamoyl-[1,1′-biphenyl]-2-yl)methyl)-N-(1-(3-fluoro-4-methylphenyl)ethyl)-1,2,3,4-tetrahydroquinoline-6-carboxamide] | +

Now from value to compound:

Binding assay (1 μLM) | SMILES
+ | C[C@H](NC(=O)c1ccc2c(c1)CCCN2Cc1ccccc1-c1ccc(C(N)=O)cc1)c1ccc([N+](=O)[O-])cc1 [Example 159, (S)-1-((4′-carbamoyl-[1,1′-biphenyl]-2-yl)methyl)-N-(1-(4-nitrophenyl)ethyl)-1,2,3,4-tetrahydroquinoline-6-carboxamide]
++ | C[C@H](NC(=O)c1ccc2c(c1)CCCN2Cc1ccccc1-c1ccc(C(N)=O)cc1)c1ccc2ccccc2c1 [Example 160, (S)-1-((4′-carbamoyl-[1,1′-biphenyl]-2-yl)methyl)-N-(1-(naphthalene-2-yl)ethyl)-1,2,3,4-tetrahydroquinoline-6-carboxamide]
++ | C[C@H](NC(=O)c1ccc2c(c1)CCCN2Cc1ccccc1-c1ccc(C(N)=O)cc1)c1ccc(C#N)cc1 [Example 161, (S)-1-((4′-carbamoyl-[1,1′-biphenyl]-2-yl)methyl)-N-(1-(4-cyanophenyl)ethyl)-1,2,3,4-tetrahydroquinoline-6-carboxamide]
+++ | C[C@H](NC(=O)c1ccc2c(c1)OCCN2Cc1ccc(-c2ccccc2C(=O)O)c(F)c1)c1ccccc1 [Example 162, (S)-2′-fluoro-4′-((7-((1-phenylethyl)carbamoyl)-2H-benzo[b][1,4]oxazine-4(3H)-yl)methyl)-[1,1′-biphenyl]-2-carboxylic acid]
+++ | C[C@H](NC(=O)c1ccc2c(c1)OCCN2Cc1ccc(-c2ccccc2C(=O)O)c(F)c1)c1ccc2ccccc2c1 [Example 163, (S)-2′-fluoro-4′-((7-((1-(naphthalene-2-yl)ethyl)carbamoyl)-2H-benzo[b][1,4]oxazine-4(3H)-yl)methyl)-[1,1′-biphenyl]-2-carboxylic acid]
+++ | Cc1ccc([C@H](C)NC(=O)c2ccc3c(c2)OCCN3Cc2ccc(-c3ccccc3C(=O)O)c(F)c2)cc1F [Example 164, (S)-2′-fluoro-4′-((7-(((3-fluoro-4-methylphenyl)ethyl)carbamoyl)-2H-benzo[b][1,4]oxazine-4(3)-yl)methyl)-[1,1′-biphenyl]-2-carboxylic acid]
